This assay relates to RSV A2. The assay is described as follows: Screening for RSV inhibition using Viral ToxGlo assay (cytopathic effect inhibition in HEp-2 cells). The following applies: human respiratory syncytial virus; RSV A2 in HEp-2 cells, MOI 0.5, 72h p.i., cytopathic effect inhibition relative to virus control, Viral ToxGlo luminescence. In kind it is cell-based, Respiratory Syncytial Virus (RSV). How it is done:
Protocol for Screening Antiviral Compounds for RSV Inhibition and Cytotoxicity Using Viral ToxGlo Assay
HEp-2 cells were maintained in Eagle's minimum essential medium (EMEM) with Earle's BSS adjusted to contain 2 mM L-glutamine, 10% fetal bovine serum, 100 U/ml penicillin and 100 µg/ml streptomycin. For the purposes of the screening assay they were grown to 90% confluency, trypsinized and recovered. The trypsin was neutralised with cell culture media and cells were centrifuged at 150×g for 5 minutes before discarding the supernatant and resuspending cell pellet in assay media (EMEM with Earle's BSS adjusted to contain 2 mM L-glutamine, 2% fetal bovine serum and 100 U/ml penicillin and 100 µg/ml streptomycin). The cells were seeded into white clear-bottomed cell culture plates at a density of 1.5×10^4 cells/well in 50 μl and 4×10^3 cells/well in 25 μl for 96 well plates and 384 well plates respectively. For the media/background control column assay media only was added. Cell plates were placed in a humid chamber and incubated overnight at 37° C./5% CO2. After overnight incubation cells were checked for confluency and healthy appearance.
Test articles were made up at 10× test concentration in a maximum DMSO concentration of 10% (final assay concentration maximal 1% DMSO) and added to the cell plates in volumes of […] for 96 well plates and 5 μl for 384 well plates. For cell control and virus control wells the test article solvent only was added. Virus or assay media for cytotoxicity test wells and media/cell control wells was added immediately after test articles at an MOI of […] for 96 and 384 well plates respectively. Virus suspension was prepared by thawing RSV A2 frozen stocks and diluting to the required concentration of plaque forming units in assay media on ice.
Cell plates were further incubated inside a humid chamber for 72h p.i at 37° C./5% CO2. After the incubation period cells were observed under the microscope to check for characteristic cytopathic effect in virus control wells and healthy cells in the cell control wells. After plates were adjusted to room temperature 20/40 μl Viral ToxGlo (Promega) was added to each well of the 384/96 well cell plates. Plates were incubated at room temperature, protected from light on a plate rocker for 20 minutes before measuring the luminescence on a spectrophotometer (Biotek Synergy HTX).
On the technique in general: Protection from cytopathic effect is a common read-out in antiviral testing.
For `O=C(N=C1NCCN1)c1ccc(Nc2cccc(C(=O)N3CCOCC3)c2C2CC2)c(C(F)(F)F)c1` [Compound 42, 4-{[2-cyclopropyl-3-(morpholine-4-carbonyl)phenyl]amino}-N-[(2Z)-imidazolidin-2-ylidene]-3-(trifluoromethyl)benzamide], the concentration giving a half-maximal response (EC50) amounted to 0.0784 µM.
For `CC(C)NC(=O)c1cccc(Nc2ccc(C(=O)/N=C3\NCCN3C3CC3)cc2C2CC2)c1` [Compound 43, 3-cyclopropyl-N-[(2E)-1-cyclopropylimidazolidin-2-ylidene]-4-({3-[(propan-2-yl)carbamoyl]phenyl}amino)benzamide] the value was 0.0798 µM; for `CC(C)CCNC(=O)c1cccc(Nc2ccc(C(=O)N=C3NCCN3)cc2C(C)(C)O)c1` [Compound 44, 3-(2-hydroxypropan-2-yl)-N-[(2E)-imidazolidin-2-ylidene]-4-({3-[(3-methylbutyl)carbamoyl]phenyl}amino)benzamide], 0.0904 µM; for `CC(C)(O)c1cc(C(=O)N=C2NCCN2)ccc1Nc1cccc(C(=O)N2CCOCC2)c1Cl` [Compound 45, 4-{[2-chloro-3-(morpholine-4-carbonyl)phenyl]amino}-3-(2-hydroxypropan-2-yl)-N-(imidazolidin-2-ylidene)benzamide], 0.0915 µM.
With `CC(=O)N1CCN/C1=N\C(=O)c1ccc(Nc2cccc(OCCCC3CCCCC3)c2)c(C2CC2)c1` [Compound 46, N-[(2E)-1-acetylimidazolidin-2-ylidene]-4-{[3-(3-cyclohexylpropoxy)phenyl]amino}-3-cyclopropylbenzamide] the figure was 0.104 µM; with `CC1(NC(=O)c2cc(F)cc(Nc3ccc(C(=O)N=C4NCCN4)cc3C3CC3)c2)CC1` [Compound 47, 3-cyclopropyl-4-({3-fluoro-5-[(1-methylcyclopropyl)carbamoyl]phenyl}amino)-N-[(2Z)-imidazolidin-2-ylidene]benzamide], 0.113 µM.
With `CC(C)(C)c1cc(C(=O)N=C2NCCN2)ccc1Nc1cccc(C(=O)NCCC2CCOC2)c1` (stereo not drawn) [Compound 48, 3-tert-butyl-N-[(2E)-imidazolidin-2-ylidene]-4-[(3-{[2-(oxolan-3-yl)ethyl]carbamoyl}phenyl)amino]benzamide] the figure was 0.117 µM; with `CC(C)NC(=O)c1cccc(Nc2ccc(C(=O)/N=C3\NCC(=O)N3)cc2C(C)(C)C)c1` [Compound 49, 3-tert-butyl-N-[(2E)-4-oxoimidazolidin-2-ylidene]-4-({3-[(propan-2-yl)carbamoyl]phenyl}amino)benzamide], 0.118 µM.
With `O=C(N=C1NCCN1)c1ccc(Nc2cccc(C(=O)NC3CCOCC3)c2Cl)c(C2CC2)c1` [Compound 50, 4-({2-chloro-3-[(oxan-4-yl)carbamoyl]phenyl}amino)-3-cyclopropyl-N-[(2E)-imidazolidin-2-ylidene]benzamide], the EC50 turned out to be 0.136 µM.
As for `O=C(N=C1NCCN1)c1ccc(Nc2cccc(OCC3COCCO3)c2)c(C2CCCC2)c1` (stereo not drawn) [Compound 51, 3-cyclopentyl-4-({3-[(1,4-dioxan-2-yl)methoxy]phenyl}amino)-N-[(2E)-imidazolidin-2-ylidene]benzamide], the EC50 was 0.14 µM.
For `CC(C)(C)c1cc(C(=O)N=C2NCCN2)ccc1Nc1cccc(OCC2COCCO2)c1` (stereo not drawn) [Compound 52, 3-tert-butyl-4-({3-[(1,4-dioxan-2-yl)methoxy]phenyl}amino)-N-[(2E)-imidazolidin-2-ylidene]benzamide] the value was 0.142 µM; for `O=C(N=C1NCCN1)c1ccc(Nc2cccc(C(=O)NC3(C(F)(F)F)CC3)c2)c(C2CC2)c1` [Compound 53, 3-cyclopropyl-N-[(2Z)-imidazolidin-2-ylidene]-4-[(3-{[1-(trifluoromethyl)cyclopropyl]carbamoyl}phenyl)amino]benzamide], 0.153 µM; for `CC(C)NC(=O)c1ccccc1Nc1ccc(C(=O)N=C2NCCN2)cc1C(C)(C)C` [Compound 54, 3-tert-butyl-N-[(2E)-imidazolidin-2-ylidene]-4-({2-[(propan-2-yl)carbamoyl]phenyl}amino)benzamide], 0.166 µM.
For `CC(C)CCNC(=O)c1ccnc(Nc2ccc(C(=O)N=C3NCCN3)cc2C(C)(C)C)c1` [Compound 55, 2-[(2-tert-butyl-4-{[(2E)-imidazolidin-2-ylidene]carbamoyl}phenyl)amino]-N-(3-methylbutyl)pyridine-4-carboxamide] the value was 0.168 µM; for `CC(C)CNC(=O)c1ccccc1Nc1ccc(C(=O)N=C2NCCN2)cc1C(C)(C)C` [Compound 56, 3-tert-butyl-N-[(2E)-imidazolidin-2-ylidene]-4-({2-[(2-methylpropyl)carbamoyl]phenyl}amino)benzamide], 0.174 µM; for `Cc1c(Nc2ccc(C(=O)N=C3NCCN3)cc2C2CC2)cccc1-c1ncc(Cl)[nH]1` [Compound 57, 4-{[3-(5-chloro-1H-imidazol-2-yl)-2-methylphenyl]amino}-3-cyclopropyl-N-[(2Z)-imidazolidin-2-ylidene]benzamide], 0.2 µM.
With `O=C(N=C1NCCN1)c1ccc(Nc2cccc(C(=O)NCCC3CCOCC3)c2)c(C2CC2)c1` [Compound 58, 3-cyclopropyl-N-[(2E)-imidazolidin-2-ylidene]-4-[(3-{[2-(oxan-4-yl)ethyl]carbamoyl}phenyl)amino]benzamide] the figure was 0.207 µM; with `CC(C)NC(=O)c1cccc(Nc2ccc(C(=O)N=C3NCCN3)cc2C2CCOC2)c1` (stereo not drawn) [Compound 59, N-[(2E)-imidazolidin-2-ylidene]-3-(oxolan-3-yl)-4-({3-[(propan-2-yl)carbamoyl]phenyl}amino)benzamide], 0.237 µM.
As for `CC(C)=CCn1nnnc1-c1cccc(Nc2ccc(C(=O)N=C3NCCN3)cc2C2CC2)c1` [Compound 60, 3-cyclopropyl-N-[(2Z)-imidazolidin-2-ylidene]-4-({3-[1-(3-methylbut-2-en-1-yl)-1H-1,2,3,4-tetrazol-5-yl]phenyl}amino)benzamide], the EC50 was found to be 0.241 µM.
For `CC(C)NC(=O)c1cccc(Nc2ccc(C(=O)/N=C3\NCC(=O)N3C)cc2C2CC2)c1` [Compound 61, 3-cyclopropyl-N-[(2E)-1-methyl-5-oxoimidazolidin-2-ylidene]-4-({3-[(propan-2-yl)carbamoyl]phenyl}amino)benzamide] the value was 0.516 µM.
For the molecule `CC(C)CCNC(=O)c1ccccc1Nc1ccc(C(=O)N=C2NCCN2)cc1C1CC1` [Compound 62, 3-cyclopropyl-N-[(2E)-imidazolidin-2-ylidene]-4-({2-[(3-methylbutyl)carbamoyl]phenyl}amino)benzamide], the EC50 is 0.641 µM.
With `CC(C)C(=O)Nc1cccc(Nc2ccc(C(=O)N=C3NCCN3)cc2C2CCOC2)c1` (stereo not drawn) [Compound 63, N-[(2E)-imidazolidin-2-ylidene]-4-{[3-(2-methylpropanamido)phenyl]amino}-3-(oxolan-3-yl)benzamide] the figure was 0.727 µM; with `Cc1c(Nc2ccc(C(=O)N=C3NCCN3)cc2C2CC2)cccc1C(=O)NC1(C#N)CC1` [Compound 64, 4-({3-[(1-cyanocyclopropyl)carbamoyl]-2-methylphenyl}amino)-3-cyclopropyl-N-[(2Z)-imidazolidin-2-ylidene]benzamide], 0.95 µM; with `CC(C)NC(=O)c1cccc(Nc2ccc(C(=O)N=C3NCCN3)cc2C2CCOCC2)c1` [Compound 69, N-[(2Z)-imidazolidin-2-ylidene]-3-(oxan-4-yl)-4-({3-[(propan-2-yl)carbamoyl]phenyl}amino)benzamide], 1.13 µM.

As a reminder, the EC50 is the concentration at which the effect is half-maximal.
